# Results reported in patent US12685755B2, “Methods and compositions for treating mucosal tissue disorders” (The University of North Carolina at Chapel Hill, priority 2012, dated 2026).
# Legend:
# [1] = tested on: Pseudomonas aeruginosa strain PAO1; assay: nitrate dependent growth of PAO1 under anaerobic atmosphere; format: cell-based; details: for inhibition of growth: anaerobic; for nitrate dependent growth: LB broth with nitrate, anaerobic atmosphere
# Description: FIG. 1. […] Pseudomonas aeruginosa strain PAO1 is capable of growing in the absence of oxygen using nitrate for respiration. […] The studies presented in FIG. 1 examine whether glutathione influences the growth of PAO1 either in the presence or absence of nitrate under either ambient (aerobic) or anaerobic atmospheres. […]
# FIG. 4. […] To examine this possibility, S-nitrosoglutathione (Sigma) was tested for influence on growth of PAO1 in TSBN (1% KNO3) with and without 6.4 mM glutathione.
# (§1) FIG. 7. […] The next series of experiments was designed to determine if there were any influences of ascorbate on glutathione potentiation of the growth inhibition of the RNI (FIGS. 7, 8 and 9).
# [2] = tested on: Pseudomonas aeruginosa strain PAO1; assay: aerobic growth of PAO1 in broth in ambient atmosphere; format: cell-based; details: for effects on aerobic growth attained by 17 h, single components: each alone: KNO2 to 3.5 mM, glutathione to 5 mM, ascorbate to 2.1 mM
# Excerpt: FIG. 1. […] Pseudomonas aeruginosa strain PAO1 is capable of growing in the absence of oxygen using nitrate for respiration. […] The studies presented in FIG. 1 examine whether glutathione influences the growth of PAO1 either in the presence or absence of nitrate under either ambient (aerobic) or anaerobic atmospheres.
# (§2) FIG. 2. […] To test this possibility, reduced glutathione was titrated vs. increasing concentrations of KNO2 in either trypticase soy broth (TSB) in ambient atmosphere or in trypticase soy broth with nitrate (TSBN) (1% KNO3) under anaerobic atmosphere.
# (§3) FIG. 3. […] These studies examined the question of the importance of the redox state of glutathione to its contributions to the inhibition by RNI and to the blocking of the glucose oxidase antimicrobial effects. Glutathione in either its reduced (GSH) or oxidized (GSSG) form was titrated in the presence or absence of 14 mM nitrite in TSB and PAO1 was grown in ambient atmosphere.
# FIG. 6. […] If NO reacts with glutathione to generate nitrosoglutathione then gassing with NO in the presence of glutathione may be expected to yield greater activity than gassing first and then adding glutathione. To test this effect, LB broth was either pre-gassed with NO followed by titration of GSH or the LB broth aliquots containing various concentrations of GSH were gassed. Titration of NO was accomplished by varying the gassing times of the LB broth.
# as §1
# FIG. 8. […] Ascorbate was titrated over a checkerboard titration of glutathione and KNO2 in LB broth.
# FIG. 9. […] In these experiments, varying concentrations of NO were achieved again by varying the gassing time (10, 15, 30 or 45 min) with 2.3% NO in N2 either in the presence (NO-GSH) or absence (NO-LB) of varying concentrations of glutathione. Glutathione was added to NO-LB in varying concentrations (NO-LB+GSH).
# [3] = tested on: Pa Mucoid laboratory derived from PAO1; details: 5% CO2; increasing concentrations of NaHCO3
# Description: (§4) FIGS. 10A-B. Influences of bicarbonate on alginate production by different strains of P. aeruginosa under a 5% CO2 atmosphere. Alginate production of selected strains of P. aeruginosa surface grown in a CO2 incubator was quantitatively determined by a colorimetric assay. […] These three strains were then tested for their ability to make alginate under an atmosphere of 5% CO2 with increasing concentrations of NaHCO3(FIG. 10B).
# PAO1 = details: 5% CO2; increasing concentrations of NaHCO3
# Description: as §4
# [4] = tested on: P. aeruginosa clinical isolate (C3873M)
# Description: as §4
# CB2 receptor = CB2 receptor (Homo sapiens, UniProt P34972); details: cited from earlier work
# CB2 receptor, sequence (P34972 whole entry): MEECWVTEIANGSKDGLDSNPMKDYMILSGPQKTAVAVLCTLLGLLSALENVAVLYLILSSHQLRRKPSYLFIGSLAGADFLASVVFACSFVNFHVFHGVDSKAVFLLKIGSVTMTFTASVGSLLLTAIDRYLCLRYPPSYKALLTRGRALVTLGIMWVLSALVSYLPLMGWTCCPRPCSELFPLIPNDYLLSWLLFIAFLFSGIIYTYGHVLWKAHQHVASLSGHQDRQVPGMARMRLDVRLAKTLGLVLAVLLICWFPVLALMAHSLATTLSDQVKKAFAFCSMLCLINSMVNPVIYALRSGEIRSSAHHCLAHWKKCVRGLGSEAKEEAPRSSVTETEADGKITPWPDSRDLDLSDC
# [5] = tested on: Pseudomonas aeruginosa strain PAO1; assay: glucose oxidase / H2O2 mediated growth inhibition of PAO1; format: cell-based
# Excerpt: as §2, §3
# [6] = absence of NO, glutathione and ascorbate concentrations and combinations of the study
structure (smiles),measurement,setting,value
"N[C@@H](CCC(=O)N[C@@H](CSN=O)C(=O)NCC(=O)O)C(=O)O [GSNO, S-nitrosoglutathione, reference compound]","inhibition of growth, bacterial density (A=650 nm) at 18 h","[1]; GSNO titrated, TSBN (1% KNO3), without glutathione",concentration dependent inhibition
"O=N[O-].[K+] [nitrite, KNO2, reference compound]",inhibitory effects on aerobic growth,"[2]; KNO2 in the presence of glutathione, LB broth",concentration dependent inhibitory effects
same,"effects on aerobic growth attained by 17 h, single components",[2]; LB broth,"neither KNO2 to 3.5 mM, glutathione to 5 mM nor ascorbate to 2.1 mM had discernible effects"
same,lowest KNO2 concentration at which synergistic inhibition was evident,"[2]; in the presence of 5 mM glutathione, ascorbate titrated, LB broth",0.875 mM
same,inhibition of aerobic growth,"[2]; nitrite to 14 mM, absence of glutathione, TSB",no discernible inhibition
same,inhibition of growth,"[1]; KNO2 added, TSBN (1% KNO3), absence of glutathione",significant inhibition
"O=C1O[C@H]([C@@H](O)CO)C(O)=C1O [ascorbate, ascorbic acid]",inhibition of growth in ambient atmosphere,"[2]; 0.2 mM ascorbate with 7.5 mM glutathione, presence of nitrate",profound inhibition of growth
same,inhibition of aerobic growth,"[2]; 2.1 mM ascorbate with 7.5 mM glutathione, absence of nitrate",total inhibition
same,inhibitory effects on aerobic growth,[2]; [6],no inhibitory effects
same,effect on inhibition by KNO2 with glutathione,"[2]; ascorbate added to KNO2 and glutathione, LB broth",enhanced
same,effect on aerobic growth attained by 17 h,"[2]; ascorbate added to either glutathione or KNO2, LB broth",no discernible effect
same,enhancement of inhibition of aerobic growth,"[2]; ascorbate titrated, 15 min delivery of NO, 2.5 mM GSH",concentration dependent ascorbate enhancement of inhibition
same,"effects on aerobic growth attained by 17 h, single components",[2]; LB broth,"neither KNO2 to 3.5 mM, glutathione to 5 mM nor ascorbate to 2.1 mM had discernible effects"
same,effect on glutathione reduction of aerobic growth,"[2]; increasing concentrations of ascorbic acid added to glutathione, LB broth",further enhanced
same,decrease in nitrate-dependent growth,[1]; increasing ascorbate in the presence of 2.5 mM glutathione,more pronounced
same,nitrate-dependent growth,"[1]; increasing concentrations of ascorbate, absence of glutathione",dose dependent decrease in nitrate-dependent growth
"O=C(O)O [bicarbonate, NaHCO3]",alginate production,[3],significantly enhanced
same,alginate production,PAO1,failed to make alginate
same,alginate production,"[4]; 5% CO2, increasing concentrations of NaHCO3",inhibited
same,alginate production associated with the mucoidy phenotype of P. aeruginosa,[4]; preliminary studies,inhibits the alginate production
"C=C1CC[C@@H]2[C@@H](C1)c1c(OC)cc(C(C)(C)CCCCCC)cc1OC2(C)C [L-759,656]",CB1/CB2 binding ratio,CB2 receptor,> 1000
"N[C@@H](CCC(=O)N[C@@H](CS)C(=O)NCC(=O)O)C(=O)O [glutathione, N—(N-L-γ-glutamyl-L-cysteinyl)glycine]",growth inhibition of PAO1 by exogenous H2O2,[5]; 14 mM GSH,blocked
same,protection from inhibition with the glucose oxidase system,"[5]; TSB, ambient atmosphere",protected PAO1 from inhibition
same,protection from the growth inhibiting effects of glucose oxidase,[5]; increasing concentration of GSH,protected PAO1
same,"inhibition of aerobic growth, glutathione with NO","[2]; 2.5 mM glutathione, NO titrated by gassing time, LB broth",dose dependent NO inhibition of growth
same,inhibition of aerobic growth,"[2]; 5 mM glutathione and ascorbate, presence versus absence of nitrate",greater inhibition of aerobic growth
same,"inhibition of aerobic growth, glutathione with NO","[2]; 5 mM glutathione, lowest concentration of NO (10 minutes gassing time), LB broth",total inhibition
same,"inhibition of aerobic growth, glutathione with NO","[2]; 5 mM glutathione, lowest concentration of NO, regardless of order of addition",total inhibition of growth
same,"inhibition of growth, glutathione with nitrite","[2]; 6.4 mM GSH and 14 mM KNO2, TSB, ambient atmosphere",significant inhibition
same,growth yield at 14 h,"[2]; 7.5 mM glutathione, LB broth with or without 1% nitrate, aerobic",reduced growth yield
same,"inhibition of growth, glutathione with nitrite","[2]; 12.8 mM GSH and 7 mM KNO2, TSB, ambient atmosphere",significant inhibition
same,inhibition of PAO1 growth in the presence of nitrite,"[2]; 14 mM nitrite, TSB, ambient atmosphere, molar equivalency",inhibition of PAO1 growth
same,enhancement of NO gas inhibition of aerobic growth,"[2]; 0.5 relative concentration of NO, TSB",dose dependent enhancement of inhibition
same,inhibitory effects on aerobic growth,[2]; [6],no inhibitory effects
same,"effects on aerobic growth attained by 17 h, single components",[2]; LB broth,"neither KNO2 to 3.5 mM, glutathione to 5 mM nor ascorbate to 2.1 mM had discernible effects"
same,aerobic growth attained,"[2]; glutathione titrated, LB broth",dose dependent reduction in the aerobic growth
same,lowest glutathione concentration at which synergistic inhibition was evident,"[2]; in the presence of 1.75 mM KNO2, ascorbate titrated, LB broth",2.5 mM
same,enhancement of NO gas inhibition of aerobic growth,"[2]; lower NO concentrations, TSB",not at lower NO concentrations
same,aerobic growth of P. aeruginosa,[2]; nitrite and nitric oxide in the presence of GSH,inhibit the aerobic growth of P. aeruginosa
same,growth yield,"[2]; reduced glutathione titrated, TSB, absence of nitrite","slight, but significant, concentration-dependent increase in growth yield"
same,growth in an anaerobic atmosphere with nitrate,"[1]; 2.5 mM and lower concentrations of glutathione, absence of ascorbate",permitted growth
same,nitrate dependent growth,[1]; 2.5 mM glutathione or less,no discernible effects
same,nitrate dependent growth,[1]; 5 mM glutathione,total inhibition
same,"effect on GSNO inhibition of growth, bacterial density (A=650 nm) at 18 h","[1]; 6.4 mM glutathione with GSNO, TSBN (1% KNO3)",significantly enhanced
same,nitrate dependent growth,[1]; 7.5 mM glutathione,total inhibition
same,inhibition of growth,"[1]; increasing GSH with nitrite concentrations not totally inhibitory by themselves, TSBN",further inhibition
same,"use of nitrate, nitrite or nitric oxide for growth under anaerobic conditions","[1]; preliminary data, P. aeruginosa","limit the ability of P. aeruginosa to utilize nitrate, nitrite, or nitric oxide to grow under anaerobic conditions"
same,anti-pseudomonal activities of GSNO and other nitric oxide donors,[1]; presence of exogenous glutathione,potentiated
"[N]=O [NO, nitric oxide, reference compound]",inhibition of aerobic growth by NO,"[2]; LB broth gassed with NO, absence of glutathione",no discernible inhibition
